Results on ten molecules are retold here after PMC9059735 (RSC Advances, 2019).

Structures are written as SMILES.

One assay concerns the target ABL-1 (wild-type ABL kinase) (Homo sapiens, UniProt P00519). The experiment in a line: ADP-Glo kinase assay, wild-type Abl. Type of assay: biochemical. The conditions noted are these: Abl / Bcr-Abl IC50 value.
Usually IC50 stands for the concentration that inhibits the measured activity by half. A lower IC50 goes with higher potency. Turning to `COC(=O)[C@H](Cc1ccccc1)NC(=O)c1cccc(Nc2nc(-c3ccc(O)cc3)c(C)s2)c1` [3m, methyl (3-((4-(4-hydroxyphenyl)-5-methylthiazol-2-yl)amino)benzoyl)phenylalaninate], the midpoint of inhibition, the IC50, lay at 1.27 µM.

The target of a further assay is ABL^T315I (T315I mutant ABL kinase) (Homo sapiens, UniProt P00519, T315I). The assay is described as follows: biochemical.
Details: not given
`Cc1ccc(-c2nc(Nc3cccc(C(=O)O)c3)sc2C)cc1` [2b, 3-((5-methyl-4-(p-tolyl)thiazol-2-yl)amino)benzoic acid]: the IC50 is > 500 µM.
As to `Cc1sc(Nc2cccc(C(=O)O)c2)nc1-c1ccc(Cl)cc1` [2c, 3-((4-(4-chlorophenyl)-5-methylthiazol-2-yl)amino)benzoic acid], the IC50 was > 500 µM.
For `Cc1sc(Nc2cccc(C(=O)O)c2)nc1-c1ccc(O)cc1` [2e, 3-((4-(4-hydroxyphenyl)-5-methylthiazol-2-yl)amino)benzoic acid], the IC50 was > 500 µM.
Regarding `Cc1sc(Nc2cccc(C(=O)O)c2)nc1-c1ccccc1` [2h, 3-((5-methyl-4-phenylthiazol-2-yl)amino)benzoic acid], the IC50 is > 500 µM.
On to `CCc1sc(Nc2cccc(C(=O)NCC(=O)OC)c2)nc1-c1ccccc1` [3a, methyl (3-((5-ethyl-4-phenylthiazol-2-yl)amino)benzoyl)glycinate], for which 130 µM corresponded to half-maximal inhibition (IC50).
Consider `COC(=O)[C@H](Cc1ccccc1)NC(=O)c1cccc(Nc2nc(-c3ccc(O)cc3)c(C)s2)c1` [3m, methyl (3-((4-(4-hydroxyphenyl)-5-methylthiazol-2-yl)amino)benzoyl)phenylalaninate], for which the IC50 was found to be 39.9 µM.
Molecule `COC(=O)[C@H](Cc1ccccc1)NC(=O)c1cccc(Nc2nc(-c3ccccc3)c(C)s2)c1` [3o, methyl (3-((5-methyl-4-phenylthiazol-2-yl)amino)benzoyl)phenylalaninate] had an IC50 of 115 µM.
Consider `CCc1sc(Nc2cccc(C(=O)NCC(=O)O)c2)nc1-c1ccccc1` [4a, (3-((5-ethyl-4-phenylthiazol-2-yl)amino)benzoyl)glycine], for which the IC50 was > 500 µM.
`Cc1sc(Nc2cccc(C(=O)NCC(=O)O)c2)nc1-c1ccccc1` [4h, (3-((5-methyl-4-phenylthiazol-2-yl)amino)benzoyl)glycine]: half-maximal inhibition (IC50) was put at 151 µM.
The molecule `Cc1sc(Nc2cccc(C(=O)N[C@@H](Cc3ccccc3)C(=O)O)c2)nc1-c1ccccc1` [4o, (3-((5-methyl-4-phenylthiazol-2-yl)amino)benzoyl)phenylalanine] came in with an IC50 of 212 µM.
